The results in this text go back to ChEMBL document CHEMBL4507284, “Data for DCP probe BI-1230” (2021).

Molecules are shown by their SMILES.

One assay concerns the target Tryptase (Homo sapiens) (UniProt Q9BZJ3+Q15661+Q9NRR2). The assay can be described thus: Tryptase (h) Eurofins-Cerep enzyme and uptake assay. It is filed as protein assay. As to conditions: Compound concentration 10.0 uM.
Assay [1] addresses Alpha-1D adrenergic receptor (Homo sapiens) (UniProt P25100). The settings on record: Compound concentration 10.0 uM.
Assay [2] addresses Matrilysin (Homo sapiens) (UniProt P09237). The assay can be described thus: MMP-7 (h) Eurofins-Cerep enzyme and uptake assay. The settings on record: Compound concentration 10.0 uM.
Assay [3] deals with Beta-1 adrenergic receptor (Homo sapiens) (UniProt P08588). As to conditions: Compound concentration 10.0 uM.
Beta-1 adrenergic receptor (Homo sapiens), sequence (P08588 whole entry, looked up): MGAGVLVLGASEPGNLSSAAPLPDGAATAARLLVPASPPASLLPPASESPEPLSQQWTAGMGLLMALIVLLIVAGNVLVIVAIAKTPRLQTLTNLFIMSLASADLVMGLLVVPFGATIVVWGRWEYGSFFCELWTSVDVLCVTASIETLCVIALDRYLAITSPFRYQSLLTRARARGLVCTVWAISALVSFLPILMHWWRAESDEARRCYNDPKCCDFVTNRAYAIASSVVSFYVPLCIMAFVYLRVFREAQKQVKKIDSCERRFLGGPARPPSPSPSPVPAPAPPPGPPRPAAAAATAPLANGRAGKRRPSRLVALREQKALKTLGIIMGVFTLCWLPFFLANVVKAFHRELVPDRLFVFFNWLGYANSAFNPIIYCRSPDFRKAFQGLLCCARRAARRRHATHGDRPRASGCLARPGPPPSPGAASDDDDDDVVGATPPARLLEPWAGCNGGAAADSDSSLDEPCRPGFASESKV
Assay [4] has as its target Procathepsin L (Homo sapiens) (UniProt P07711). The assay can be described thus: Cathepsin L (h) Eurofins-Cerep enzyme and uptake assay. The settings on record: Compound concentration 10.0 uM.
For assay [5], the target named is Beta-3 adrenergic receptor (Homo sapiens, UniProt P13945). The assay is described as follows: GPCRScan assay: inhibition of Beta3. Details: radioligand conc. used [nm] 0.2 – 0.5, parental cells HEK Flp-In.
Beta-3 adrenergic receptor, sequence (P13945 whole entry): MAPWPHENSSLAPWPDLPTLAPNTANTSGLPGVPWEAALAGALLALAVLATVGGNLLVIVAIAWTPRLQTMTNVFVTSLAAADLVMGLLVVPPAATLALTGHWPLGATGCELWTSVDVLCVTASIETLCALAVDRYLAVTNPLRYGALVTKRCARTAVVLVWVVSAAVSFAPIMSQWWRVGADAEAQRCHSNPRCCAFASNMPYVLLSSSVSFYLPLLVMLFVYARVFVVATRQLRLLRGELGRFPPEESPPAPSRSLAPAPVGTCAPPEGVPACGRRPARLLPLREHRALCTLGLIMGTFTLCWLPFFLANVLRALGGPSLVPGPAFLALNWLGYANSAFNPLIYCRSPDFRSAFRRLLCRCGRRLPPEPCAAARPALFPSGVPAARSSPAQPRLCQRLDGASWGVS
In assay [6] the target is Collagenase 3 (Homo sapiens) (UniProt P45452). The assay can be described thus: MMP-13 (h) Eurofins-Cerep enzyme and uptake assay. The settings on record: Compound concentration 10.0 uM.
Another assay addresses Caspase-3 (Homo sapiens) (UniProt P42574). The assay can be described thus: Caspase-3 (h) Eurofins-Cerep enzyme and uptake assay. As to conditions: Compound concentration 10.0 uM.
The target of a further assay is Trypsin (Homo sapiens) (UniProt P07477+P07478+P35030). The assay can be described thus: Trypsin (h) Eurofins-Cerep enzyme and uptake assay. It is filed as protein assay. As to conditions: Compound concentration 10.0 uM.
Assay [7] addresses Cathepsin S (Homo sapiens) (UniProt P25774). The assay can be described thus: Cathepsin S (h) Eurofins-Cerep enzyme and uptake assay. As to conditions: Compound concentration 10.0 uM.
Assay [8] has as its target Histamine H3 receptor (Homo sapiens) (UniProt Q9Y5N1). The settings on record: Compound concentration 10.0 uM.
In assay [9] the target is GABA-A receptor; anion channel (Rattus norvegicus) (UniProt O09028+P15431+P18506+P18508+P19969+P20236+P23574+P23576+P28471+P28473+P30191+P62813+P63079+P63138+Q91ZM7+Q9ES14). As to conditions: Compound concentration 10.0 uM.

Matrilysin (Homo sapiens), sequence (P09237 whole entry): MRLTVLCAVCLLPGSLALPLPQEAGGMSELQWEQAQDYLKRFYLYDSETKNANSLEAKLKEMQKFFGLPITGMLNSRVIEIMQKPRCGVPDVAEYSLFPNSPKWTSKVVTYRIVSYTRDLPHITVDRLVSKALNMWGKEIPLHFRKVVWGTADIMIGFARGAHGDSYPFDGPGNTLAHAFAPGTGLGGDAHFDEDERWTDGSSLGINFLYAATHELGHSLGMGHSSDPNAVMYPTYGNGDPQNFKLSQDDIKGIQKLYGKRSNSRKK
Histamine H3 receptor (Homo sapiens), sequence (Q9Y5N1 whole entry): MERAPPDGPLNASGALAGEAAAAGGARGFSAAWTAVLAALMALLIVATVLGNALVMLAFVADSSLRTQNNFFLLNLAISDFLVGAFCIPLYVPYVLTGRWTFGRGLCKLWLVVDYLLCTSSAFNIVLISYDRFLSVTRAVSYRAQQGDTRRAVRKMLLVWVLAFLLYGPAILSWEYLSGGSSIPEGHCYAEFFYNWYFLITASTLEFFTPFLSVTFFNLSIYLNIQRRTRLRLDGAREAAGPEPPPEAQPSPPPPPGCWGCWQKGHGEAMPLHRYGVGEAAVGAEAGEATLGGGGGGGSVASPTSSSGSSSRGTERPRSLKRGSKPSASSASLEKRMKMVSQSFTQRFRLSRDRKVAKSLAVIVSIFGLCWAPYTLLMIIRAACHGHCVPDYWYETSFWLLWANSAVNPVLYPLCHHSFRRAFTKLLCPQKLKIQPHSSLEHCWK
Cathepsin S (Homo sapiens), sequence (P25774 115-331 limits assumed): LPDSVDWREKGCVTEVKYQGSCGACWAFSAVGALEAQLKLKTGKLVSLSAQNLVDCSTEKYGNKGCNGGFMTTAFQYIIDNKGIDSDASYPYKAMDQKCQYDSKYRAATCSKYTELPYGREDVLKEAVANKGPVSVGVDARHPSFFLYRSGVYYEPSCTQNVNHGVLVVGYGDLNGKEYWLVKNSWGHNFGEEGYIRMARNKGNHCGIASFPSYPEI
Caspase-3 (Homo sapiens), sequence (P42574 29-175 limits assumed): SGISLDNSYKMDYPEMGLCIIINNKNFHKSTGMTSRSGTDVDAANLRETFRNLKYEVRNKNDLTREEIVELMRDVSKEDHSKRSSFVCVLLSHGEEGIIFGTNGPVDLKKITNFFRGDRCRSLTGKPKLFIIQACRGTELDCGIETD
Caspase-3 (Homo sapiens), sequence (P42574 176-277 limits assumed): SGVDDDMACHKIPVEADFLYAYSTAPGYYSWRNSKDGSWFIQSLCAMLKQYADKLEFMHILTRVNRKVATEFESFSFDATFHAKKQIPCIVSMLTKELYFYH
Procathepsin L (Homo sapiens), sequence (P07711 114-333 limits assumed): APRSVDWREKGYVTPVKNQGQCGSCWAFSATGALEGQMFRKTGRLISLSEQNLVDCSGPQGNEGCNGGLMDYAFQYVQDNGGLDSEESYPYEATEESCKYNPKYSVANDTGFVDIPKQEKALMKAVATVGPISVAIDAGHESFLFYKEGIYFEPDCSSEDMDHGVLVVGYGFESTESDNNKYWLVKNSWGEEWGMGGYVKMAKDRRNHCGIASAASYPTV
Alpha-1D adrenergic receptor (Homo sapiens), sequence (P25100 whole entry): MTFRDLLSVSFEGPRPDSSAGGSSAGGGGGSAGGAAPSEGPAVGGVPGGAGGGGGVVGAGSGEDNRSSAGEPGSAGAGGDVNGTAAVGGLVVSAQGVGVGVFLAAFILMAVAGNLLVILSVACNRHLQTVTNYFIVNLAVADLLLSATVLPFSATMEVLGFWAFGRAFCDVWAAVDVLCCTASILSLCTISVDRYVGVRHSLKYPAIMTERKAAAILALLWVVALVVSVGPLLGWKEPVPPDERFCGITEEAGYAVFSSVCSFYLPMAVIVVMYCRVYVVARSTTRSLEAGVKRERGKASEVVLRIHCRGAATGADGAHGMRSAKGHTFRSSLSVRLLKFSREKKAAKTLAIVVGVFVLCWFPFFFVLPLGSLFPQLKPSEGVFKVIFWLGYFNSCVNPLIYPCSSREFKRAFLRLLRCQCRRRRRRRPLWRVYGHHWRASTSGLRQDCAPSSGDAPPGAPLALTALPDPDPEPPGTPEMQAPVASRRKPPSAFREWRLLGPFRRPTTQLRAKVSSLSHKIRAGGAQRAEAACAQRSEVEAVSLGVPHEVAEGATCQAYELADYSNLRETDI

What is called inhibition is the relative decrease from the control value, in per cent. For orientation: Ki means the dissociation constant of the complex between target and ligand, obtained from inhibition or displacement. With `COc1ccc2c(O[C@@H]3C[C@H]4C(=O)N[C@]5(C(=O)O)CC5/C=C\CCCCC[C@H](NC(=O)OC5CCCC5)C(=O)N4C3)cc(-c3csc(NC(=O)C(C)C)n3)nc2c1C` (some centres not stated) [BI 1230], the % Inhibition of Control Values turned out to be 6.9% at Tryptase (Homo sapiens); 23.4% in assay [2]; 13.6% in [4]; 281% in [6]; 23.8% at Caspase-3 (Homo sapiens); 29.8% at Trypsin (Homo sapiens). In addition, the % Inhibition of Control Values in assay [7] worked out at 27%. For the same molecule, the inhibition in assay [1] is 20.5%; in assay [3], 2.05%. In assay [5], the Ki was 3.62 µM.
As for `O=C(N[C@H]1CCCCC/C=C\C2C[C@@]2(C(=O)O)NC(=O)[C@@H]2C[C@@H](Oc3ccncc3)CN2C1=O)OC1CCCC1` (some centres not stated) [BI 1675], the figures for the inhibition in assay [8] and in [9] were 2.64% and -5.88%, respectively.
